PubChem BioAssay (NCI)
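Assay format: 96-well plates, 48-hour exposure. The concentration for 50% growth inhibition is given as GI50. TGI is the concentration that stops growth completely.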

What was measured:
Test in all cases: NCI-60 cell line screen, 48 h
[1] = tested on: 786-0 renal
[2] = tested on: A498 renal
[3] = tested on: A549 NSCLC
[4] = tested on: ACHN renal
[5] = tested on: BT-549 breast
[6] = tested on: CAKI-1 renal
[7] = tested on: CCRF-CEM leukemia
[8] = tested on: COLO 205 colon
[9] = tested on: DLD-1 colon
[10] = tested on: DMS 114 small cell lung
[11] = tested on: DMS 273 small cell lung
[12] = tested on: DU-145 prostate
[13] = tested on: EKVX NSCLC
[14] = tested on: HCC-2998 colon
[15] = tested on: HCT-116 colon
[16] = tested on: HCT-15 colon
[17] = tested on: HL-60(TB) leukemia
[18] = tested on: HOP-18 NSCLC
[19] = tested on: HOP-62 NSCLC
[20] = tested on: HOP-92 NSCLC
[21] = tested on: HS 578T breast
[22] = tested on: HT29 colon
[23] = tested on: IGROV1 ovarian
[24] = tested on: K-562 leukemia
[25] = tested on: KM12 colon
[26] = tested on: KM20L2 colon
[27] = tested on: LOX IMVI melanoma
[28] = tested on: LXFL 529 NSCLC
[29] = tested on: M14 melanoma
[30] = tested on: MALME-3M melanoma
[31] = tested on: MCF7 breast
[32] = tested on: MDA-MB-231 breast
[33] = tested on: MDA-MB-435
[34] = tested on: MDA-N
[35] = tested on: MOLT-4 leukemia
[36] = tested on: NCI-H226 lung
[37] = tested on: NCI-H23 lung
[38] = tested on: NCI-H460 lung
[39] = tested on: NCI-H522 lung
[40] = tested on: NCI/ADR-RES ovarian
[41] = tested on: OVCAR-3 ovarian
[42] = tested on: OVCAR-4 ovarian
[43] = tested on: OVCAR-5 ovarian
[44] = tested on: OVCAR-8 ovarian
[45] = tested on: PC-3 prostate
[46] = tested on: RPMI-8226 leukemia
[47] = tested on: RXF 393 renal
[48] = tested on: SF-268 CNS
[49] = tested on: SF-295 CNS
[50] = tested on: SF-539 CNS
[51] = tested on: SK-MEL-2 melanoma
[52] = tested on: SK-MEL-28 melanoma
[53] = tested on: SK-MEL-5 melanoma
[54] = tested on: SK-OV-3 ovarian
[55] = tested on: SN12C renal
[56] = tested on: SNB-19 CNS
[57] = tested on: SNB-75 CNS
[58] = tested on: SNB-78 CNS
[59] = tested on: SR leukemia
[60] = tested on: SW-620 colon
[61] = tested on: T-47D breast
[62] = tested on: TK-10 renal
[63] = tested on: U251 CNS
[64] = tested on: UACC-257 melanoma
[65] = tested on: UACC-62 melanoma
[66] = tested on: UO-31 renal

What does the source list for O=C1C=C(Nc2cccnc2)c2ccccc2C1=O?
TGI [1]: 23.8 µM; TGI [2]: 22.3 µM; TGI [3]: 13.3 µM; TGI [4]: 20.5 µM; TGI [5]: 3.83 µM; TGI [6]: 18.6 µM; TGI [7]: 51.9 µM; TGI [8]: 38.6 µM; TGI [9]: 20 µM; TGI [10]: 5.01 µM; TGI [11]: > 39.6 µM; TGI [12]: 14.1 µM; TGI [13]: 26.7 µM; TGI [14]: 30.5 µM; TGI [15]: 25.6 µM; TGI [16]: 29.3 µM; TGI [17]: 23 µM; TGI [18]: 22 µM; TGI [19]: 12.9 µM; TGI [20]: 27.1 µM; TGI [21]: 8.33 µM; TGI [22]: 33.7 µM; TGI [23]: 18.7 µM; TGI [24]: 22.7 µM; TGI [25]: 23.4 µM; TGI [26]: > 62.3 µM; TGI [27]: 9.9 µM; TGI [28]: > 51.3 µM; TGI [29]: 6.76 µM; TGI [30]: 5.35 µM; TGI [31]: 8.2 µM; TGI [32]: 20.4 µM; TGI [33]: 1.39 µM; TGI [34]: 1.42 µM; TGI [35]: 46.6 µM; TGI [36]: 38.1 µM; TGI [37]: 9.41 µM; TGI [38]: 12.5 µM; TGI [39]: 15.5 µM; TGI [40]: 23.9 µM; TGI [41]: 11.6 µM; TGI [42]: 19.9 µM; TGI [43]: 18.4 µM; TGI [44]: 23.1 µM; TGI [45]: 52.4 µM; TGI [46]: 51.3 µM; TGI [47]: 38 µM; TGI [48]: 20.9 µM; TGI [49]: 9.09 µM; TGI [50]: 8.41 µM; TGI [51]: 25.1 µM; TGI [52]: 13.5 µM; TGI [53]: 2.58 µM; TGI [54]: 22.1 µM; TGI [55]: 21.5 µM; TGI [56]: 24.8 µM; TGI [57]: 5.45 µM; TGI [58]: 38 µM; TGI [59]: 37 µM; TGI [60]: 18.7 µM; TGI [61]: 43.8 µM; TGI [62]: 34.5 µM; TGI [63]: 24.4 µM; TGI [64]: 4.48 µM; TGI [65]: 3.31 µM; TGI [66]: 24.2 µM

CC(C)CC(=O)[O-].CC(C)CC(=O)[O-].N.N.N.N.[Co+3].[O-][Cl+3]([O-])([O-])O.[O-][Cl+3]([O-])([O-])[O-] was tested. Which GI50 [1] did it give?
The GI50 was over 100 µM.

What about the TGI [1] of the same molecule?
The TGI was over 100 µM.

And the GI50 [3]?
Its GI50 is over 100 µM.

What about the TGI [3] of the same molecule?
Its TGI is over 100 µM.

What about the GI50 [4] of the same molecule?
The GI50 was over 100 µM.

And the TGI [4]?
Its TGI is over 100 µM.

And the GI50 [7]?
The GI50 was over 100 µM.

And the TGI [7]?
Its TGI is over 100 µM.

What about the GI50 [8] of the same molecule?
Its GI50 is over 100 µM.

And the TGI [8]?
The TGI was over 100 µM.

What about the GI50 [9] of the same molecule?
The GI50 was over 100 µM.

And the TGI [9]?
The TGI was over 100 µM.

And the GI50 [13]?
The GI50 was over 100 µM.

What about the TGI [13] of the same molecule?
The TGI was over 100 µM.

What about the GI50 [14] of the same molecule?
The GI50 was over 100 µM.

And the TGI [14]?
Its TGI is over 100 µM.

What about the GI50 [16] of the same molecule?
Its GI50 is over 100 µM.

What about the TGI [16] of the same molecule?
Its TGI is over 100 µM.

What about the GI50 [17] of the same molecule?
Its GI50 is over 100 µM.

And the TGI [17]?
The TGI was over 100 µM.

What about the GI50 [18] of the same molecule?
The GI50 was over 100 µM.

And the TGI [18]?
Its TGI is over 100 µM.

What about the GI50 [20] of the same molecule?
The GI50 was over 100 µM.

What about the TGI [20] of the same molecule?
The TGI was over 100 µM.

And the GI50 [23]?
The GI50 was over 100 µM.

What about the TGI [23] of the same molecule?
Its TGI is over 100 µM.

And the GI50 [24]?
The GI50 was over 100 µM.

What about the TGI [24] of the same molecule?
The TGI was over 100 µM.

And the GI50 [25]?
Its GI50 is over 100 µM.

And the TGI [25]?
Its TGI is over 100 µM.

What about the GI50 [27] of the same molecule?
Its GI50 is over 100 µM.

What about the TGI [27] of the same molecule?
Its TGI is over 100 µM.

What about the GI50 [28] of the same molecule?
The GI50 was over 100 µM.

And the TGI [28]?
Its TGI is over 100 µM.

And the GI50 [29]?
The GI50 was over 100 µM.

And the TGI [29]?
Its TGI is over 100 µM.

And the GI50 [30]?
Its GI50 is over 100 µM.

And the TGI [30]?
Its TGI is over 100 µM.

And the GI50 [35]?
The GI50 was over 100 µM.

And the TGI [35]?
Its TGI is over 100 µM.

And the GI50 [36]?
Its GI50 is over 100 µM.

What about the TGI [36] of the same molecule?
Its TGI is over 100 µM.

What about the GI50 [37] of the same molecule?
The GI50 was over 100 µM.

What about the TGI [37] of the same molecule?
The TGI was over 100 µM.

And the GI50 [43]?
The GI50 was over 100 µM.

What about the TGI [43] of the same molecule?
Its TGI is over 100 µM.

And the GI50 [44]?
Its GI50 is over 100 µM.

And the TGI [44]?
Its TGI is over 100 µM.

And the GI50 [46]?
Its GI50 is over 100 µM.

And the TGI [46]?
The TGI was over 100 µM.

And the GI50 [47]?
Its GI50 is over 100 µM.

What about the TGI [47] of the same molecule?
The TGI was over 100 µM.

And the GI50 [48]?
Its GI50 is over 100 µM.

And the TGI [48]?
The TGI was over 100 µM.

And the GI50 [49]?
Its GI50 is over 100 µM.

And the TGI [49]?
Its TGI is over 100 µM.

What about the GI50 [50] of the same molecule?
Its GI50 is over 100 µM.

And the TGI [50]?
Its TGI is over 100 µM.

And the GI50 [51]?
Its GI50 is over 100 µM.

What about the TGI [51] of the same molecule?
The TGI was over 100 µM.

And the GI50 [52]?
The GI50 was over 100 µM.

What about the TGI [52] of the same molecule?
The TGI was over 100 µM.

And the GI50 [54]?
The GI50 was over 100 µM.

What about the TGI [54] of the same molecule?
Its TGI is over 100 µM.

What about the GI50 [55] of the same molecule?
Its GI50 is over 100 µM.

And the TGI [55]?
Its TGI is over 100 µM.

And the GI50 [56]?
Its GI50 is over 100 µM.

And the TGI [56]?
Its TGI is over 100 µM.

And the GI50 [57]?
The GI50 was over 100 µM.

What about the TGI [57] of the same molecule?
The TGI was over 100 µM.

And the GI50 [58]?
The GI50 was over 100 µM.

What about the TGI [58] of the same molecule?
The TGI was over 100 µM.

And the GI50 [59]?
Its GI50 is over 100 µM.

And the TGI [59]?
The TGI was over 100 µM.

What about the GI50 [60] of the same molecule?
Its GI50 is over 100 µM.

What about the TGI [60] of the same molecule?
The TGI was over 100 µM.

What about the GI50 [62] of the same molecule?
The GI50 was over 100 µM.

What about the TGI [62] of the same molecule?
Its TGI is over 100 µM.

What about the GI50 [64] of the same molecule?
Its GI50 is over 100 µM.

And the TGI [64]?
Its TGI is over 100 µM.

What about the GI50 [65] of the same molecule?
The GI50 was over 100 µM.

And the TGI [65]?
Its TGI is over 100 µM.

And the GI50 [66]?
Its GI50 is over 100 µM.

And the TGI [66]?
Its TGI is over 100 µM.
